# Test results taken from ChEMBL document CHEMBL1152102, “6-Phenyl-6-alkylamido-5,6-dihydro-2H-pyran-2-ones: novel HIV protease inhibitors” (Bioorg Med Chem Lett, 1996).
# pIC50: −log10 of the molar value.
# Target: Human immunodeficiency virus type 1 protease (Human immunodeficiency virus 1, UniProt Q72874)
# Assay: In vitro inhibitory activity against purified HIV-1 protease at a pH of 4.7 and a final enzyme concentration of 0.45-1.1 nM
row,SMILES,pIC50
1,CC(C)c1ccccc1SC1=C(O)OC(CCCC(=O)N2CCN(C(=O)OC(C)(C)C)CC2)(c2ccccc2)CC1=O (stereo not given),6.91
2,CC(C)c1ccccc1SC1=C(O)OC(CCC(=O)N2CCN(C(=O)OC(C)(C)C)CC2)(c2ccccc2)CC1=O (stereo not given),5.90
3,CC(C)c1ccccc1SC1=C(O)OC(CCCCC(=O)N2CCSCC2)(c2ccccc2)CC1=O (stereo not given),6.23
4,CC(C)c1ccccc1SC1=C(O)OC(CCCCC(=O)N2CCNCC2)(c2ccccc2)CC1=O (stereo not given),6.63
5,CC(C)c1ccccc1SC1=C(O)OC(CCC(=O)N2CCSCC2)(c2ccccc2)CC1=O (stereo not given),5.96
6,CCCCCC1(c2ccccc2)CC(=O)C(Sc2ccccc2C(C)C)=C(O)O1 (stereo not given),7.06
7,CC(C)c1ccccc1SC1=C(O)OC(CCCC(=O)N2CCSCC2)(c2ccccc2)CC1=O (stereo not given),6.55
8,CC(C)c1ccccc1SC1=C(O)OC(CCC(=O)N2CCNCC2)(c2ccccc2)CC1=O (stereo not given),5.96
9,CC(C)c1ccccc1SC1=C(O)OC(CCCC(=O)N2CCOCC2)(c2ccccc2)CC1=O (stereo not given),6.73
10,CC(C)c1ccccc1SC1=C(O)OC(CCCCC(=O)N2CCN(C(=O)OC(C)(C)C)CC2)(c2ccccc2)CC1=O (stereo not given),6.90
11,CC(C)c1ccccc1SC1=C(O)OC(CCCC(=O)N2CCNCC2)(c2ccccc2)CC1=O (stereo not given),6.25
12,CC(C)c1ccccc1SC1=C(O)OC(CCC(=O)N2CCOCC2)(c2ccccc2)CC1=O (stereo not given),5.61
13,CC(C)c1ccccc1SC1=C(O)OC(CCCC(N)=O)(c2ccccc2)CC1=O (stereo not given),7.00
14,CC(C)c1ccccc1SC1=C(O)OC(CCCCC(=O)N2CCOCC2)(c2ccccc2)CC1=O (stereo not given),6.71

# Results, then the compound that gave them:
row,pIC50,SMILES
1,6.17,CC(C)c1ccccc1SC1=C(O)OC(CCCC(=O)N(C)Cc2ccccc2)(c2ccccc2)CC1=O (stereo not given)
2,6.84,CC(C)c1ccccc1SC1=C(O)OC(CCCC(=O)NCCc2ccccc2)(c2ccccc2)CC1=O (stereo not given)
3,6.37,CC(C)c1ccccc1SC1=C(O)OC(CCCC(=O)Nc2ccccc2)(c2ccccc2)CC1=O (stereo not given)
4,6.20,CC(C)c1ccccc1SC1=C(O)OC(CCCC(=O)N(C)c2ccccc2)(c2ccccc2)CC1=O (stereo not given)
5,8.74,CC(C)c1ccccc1SC1=C(O)OC(CCCCC(=O)O)(c2ccccc2)CC1=O (stereo not given)
6,7.04,CC(C)c1ccccc1SC1=C(O)OC(CCCCC(N)=O)(c2ccccc2)CC1=O (stereo not given)
7,7.04,CC(C)c1ccccc1SC1=C(O)OC(CCCCC(=O)Nc2ccccc2)(c2ccccc2)CC1=O (stereo not given)
8,6.67,CC(C)c1ccccc1SC1=C(O)OC(CCCC(=O)N(C)CCc2ccccc2)(c2ccccc2)CC1=O (stereo not given)
9,7.59,CC(C)c1ccccc1SC1=C(O)OC(CCCCC(=O)NCc2ccccc2)(c2ccccc2)CC1=O (stereo not given)
10,7.09,CC(C)c1ccccc1SC1=C(O)OC(CCCC(=O)NCc2ccccc2)(c2ccccc2)CC1=O (stereo not given)
11,7.15,CC(C)c1ccccc1SC1=C(O)OC(CCCCC(=O)NCCc2ccccc2)(c2ccccc2)CC1=O (stereo not given)
